# From patent US20170030926A1, “MARKER OF NEUROPATHIC GAUCHER'S DISEASE AND METHODS OF USE THEREOF” (Yeda Research and Development Co. Ltd., priority 2014, published 2017)
# Tests used:
# GPNMB = GPNMB levels in CSF and brain homogenates of CBE treated mice by ELISA; assay type: in vivo
# Experimental: (§1) C57BL/6OlaHsd mice were used as another model of nGD, in which the disease is induced by intra-peritoneal (IP) injection with 100 mg/Kg/day conduritol b epoxide ([…], calbiochem), an irreversible GCase inhibitor.
# Mice were anesthetized (100mg/kg Ketamine and 10 mg/Kg xylazine) and CSF was aspired from the Cisterna magna using glass needles. Brain tissues were removed and lysed in ˜6 volumes of Ripa buffer (150 mM sodium chloride, 1.0% Triton X-100, 0.5% sodium deoxycholate, 0.1% SDS, 50 mM Tris, pH 8.0) supplemented with a protease inhibitor mixture (Sigma). Following homogenization, samples were centrifuged at 4500gav for 5 min at 4° C., and the supernatant was collected. Protein level was quantified using the BCA protein assay reagent (Pierce Chemical Co.) GPNMB was measured using the mouse GPNMB ELISA kit (R&D systems) According to manufacturer's protocol.
# (§2) Correlation of CSF levels of GPNMB and nGD symptoms was further verified using an additional mouse model of GD, where mice are induced for GD by injections of conduritol b epoxide (CBE), a GCase inhibitor. 100 mg/Kg/day of CBE were daily injected into mice starting on day 15 post-natal. On day 30 the mice were divided into three groups: “CBE D15-30” in which CBE injections were ceased on day 30, “CBE D15-30; PBS D31-41” in which CBE injections were ceased on day 30 and the mice continued to receive phosphate buffered saline (PBS) injections until day 41, and “CBE D15-41”, in which CBE injections were continued to day 41. An additional group of mice was injected with PBS during the entire experiment (“PBS”) and served as a control (FIG. 4A). Mice body weight, a simple indicator of disease progression, was measured daily during the experiment and the results are shown in FIG. 4B.
# CSF was aspirated from the Cisterna magna of the mice and GPNMB levels were measured in both CSF (FIG. 4C) and brain homogenates (FIG. 4D) by ELISA. […] Remarkably, GPNMB levels rapidly declined during the recovery period. More specifically, GPNMB levels in the CSF and brain increased upon injection of CBE from day 15-30 and to a higher extent with injection until day 41.
# [1] = Body weight of mice induced for GD by daily CBE injections; assay type: in vivo, C57BL/6OlaHsd mice
# Experimental: as §1, §2
# [2] = Therapeutic effect on the brain in Type 3 GD patients on long-term ERT and miglustat; assay type: in vivo, human; details: long-term treatment
# Description: Spinal fluid samples were collected for biomarker discovery from patients with Type 3 GD and age-matched control subjects.
# [3] = compared with mice continuously treated with CBE until day 41
Structure (SMILES),"GPNMB level in CSF (GPNMB; CBE treated mice vs PBS control, ELISA)","GPNMB level in brain (GPNMB; CBE treated mice vs PBS control, brain homogenates, ELISA)",GPNMB level in CSF on day 41 after cessation of CBE on day 30 (GPNMB; [3]),GPNMB level in brain on day 41 after cessation of CBE on day 30 (GPNMB; [3]),"time until body weight began to decrease after beginning CBE injections ([1]; 100 mg/Kg/day IP daily from day 15 post-natal, body weight as indicator of disease progression)","body weight course after CBE injections ceased ([1]; CBE D15-30, PBS D31-41 group)","body weight course with continued CBE injections ([1]; CBE D15-41 group, 100 mg/Kg/day)",therapeutic effect on the brain [2]
"O[C@H]1[C@H](O)[C@@H](O)[C@@H]2O[C@@H]2[C@@H]1O (racemic) [CBE, conduritol b epoxide]",marked elevation,marked elevation,significantly lower level,significantly lower level,10 to 12 days,began to gain weight,continued to decrease until day 41,
CCCCN1C[C@H](O)[C@@H](O)[C@H](O)[C@H]1CO [miglustat],,,,,,,,neither had any therapeutic effect on the brain
